Laboratory results: PMC6001238, “Iterative Chemical Engineering of Vancomycin Leads to Novel Vancomycin Analogs With a High in Vitro Therapeutic Index” (Frontiers in Microbiology, 2018)
Converted amounts (≈) assume the structure as drawn.

Assays:
MRSA KS89 = assay: MIC, broth microdilution, MRSA KS89; assay type: cell-based, Staphylococcus aureus; details: for MIC-fold improvement vs. vancomycin: MRSA KS8, ratio of MIC of vancomycin and MIC of analogue; for MIC: Staphylococcus aureus MRSA KS8, read-out: MIC
In short: (§1)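 Susceptibility was scored by broth microdilution (CLSI). In one instance each vancomycin analog or control antibiotic was tested in the presence of vancomycin, 10 μM final, and ultrapure water plus non-inoculated broth were included as controls.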

[1] = system: Murine leukemia (L1210) cells; assay: Cytostatic activity, L1210 cell proliferation; assay type: cell-based; details: mean ± SD of three experiments; highest concentration tested 250 µM; 2 days; read-out: Toxicity (IC50) L1210
In short: (§2)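 Readout: Coulter cell number after drug exposure at 37°C. Durations differ by line (L1210 2 days; CEM 3 days; HeLa 4 days). Stock suspension 300,000–500,000 cells/mL, diluted by mixing with compound. Endpoint: IC50 vs negative control.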

[2] = system: human cervix carcinoma (HeLa) cells; assay: Cytostatic activity, HeLa cell proliferation; assay type: cell-based; details: mean ± SD of three experiments; highest concentration tested 250 µM; 4 days; read-out: Toxicity (IC50) HeLa
In short: as §2

E. faecalis VRE 6 = assay: MIC, broth microdilution, vancomycin-resistant E. faecalis VRE 6 (VanA); assay type: cell-based, Enterococcus faecalis; details: for MIC: Enterococcus faecalis VRE 6 (vancomycin-resistant), read-out: MIC; for MIC-fold improvement vs. vancomycin: VRE 6, ratio of MIC of vancomycin and MIC of analogue
In short: as §1

MRSA KS6 = assay: MIC, broth microdilution, MRSA KS6; assay type: cell-based, Staphylococcus aureus; details: for MIC-fold improvement vs. vancomycin: MRSA KS6, ratio of MIC of vancomycin and MIC of analogue; for MIC: Staphylococcus aureus MRSA KS6, read-out: MIC
In short: as §1

MRSA KS2 = assay: MIC, broth microdilution, MRSA KS2; assay type: cell-based, Staphylococcus aureus; details: for MIC-fold improvement vs. vancomycin: MRSA KS2, ratio of MIC of vancomycin and MIC of analogue; for MIC: Staphylococcus aureus MRSA KS2, read-out: MIC
In short: as §1

E. faecalis VRE 37 = assay: MIC, broth microdilution, vancomycin-resistant E. faecalis VRE 37 (VanA); assay type: cell-based, Enterococcus faecalis; details: for MIC: Enterococcus faecalis VRE 37 (vancomycin-resistant), read-out: MIC
In short: as §1

E. faecalis VRE 53 = assay: MIC, broth microdilution, vancomycin-resistant E. faecalis VRE 53 (VanA); assay type: cell-based, Enterococcus faecalis; details: for MIC: Enterococcus faecalis VRE 53 (vancomycin-resistant), read-out: MIC; for MIC-fold improvement vs. vancomycin: VRE 53, ratio of MIC of vancomycin and MIC of analogue
In short: as §1

[3] = system: L1210, CEM and HeLa cell lines; assay: Cytostatic activity, average or summary over L1210, CEM and HeLa; assay type: cell-based; details: average of L1210, CEM and HeLa; read-out: Toxicity (IC50) Average
In short: as §2

E. faecalis VRE 29 = assay: MIC, broth microdilution, vancomycin-resistant E. faecalis VRE 29 (VanA); assay type: cell-based, Enterococcus faecalis; details: for MIC: Enterococcus faecalis VRE 29 (vancomycin-resistant), read-out: MIC; for MIC-fold improvement vs. vancomycin: VRE 29, ratio of MIC of vancomycin and MIC of analogue
In short: as §1

S. aureus VRSA = assay: MIC, broth microdilution, vancomycin-resistant S. aureus (VRSA); assay type: cell-based, Staphylococcus aureus; details: for MIC: Staphylococcus aureus VRSA, read-out: MIC; for MIC-fold improvement vs. vancomycin: VRSA, ratio of MIC of vancomycin and MIC of analogue
In short: as §1

[4] = system: S. aureus VSSA (ATCC 6538); assay: MIC, broth microdilution, vancomycin-sensitive S. aureus (VSSA/MSSA, ATCC 6538); assay type: cell-based, Staphylococcus aureus; details: for MIC: Staphylococcus aureus VSSA, read-out: MIC; for MIC-fold improvement vs. vancomycin: VSSA, ratio of MIC of vancomycin and MIC of analogue
In short: as §1

[5] = system: human T-lymphocyte (CEM) cells; assay: Cytostatic activity, CEM cell proliferation; assay type: cell-based; details: mean ± SD of three experiments; highest concentration tested 250 µM; 3 days; read-out: Toxicity (IC50) CEM
In short: as §2

[6] = system: Clostridium difficile ATJ ribotype 014/20; assay: MIC, plate drop assay, C. difficile ATJ ribotype 014/20; assay type: cell-based; details: for MIC-fold improvement vs. vancomycin: C. difficile ATJ ribotype 014/20; for MIC: C. difficile ATJ ribotype 014/20, plate drop assay
Description: (§3) Bacterial lawns of both C. difficile strains were prepared by adding 0.5 mL overnight culture to 8 mL sloppy BHI agar (0.4% agar) supplemented with 1.5 g/L CaCl2⋅2H2O and 81.2 g/L MgCl2⋅6H2O, and pouring the mixture into Petri plates. A twofold dilution series of the selected vancomycin analogs, vancomycin ([…]) and daptomycin (25 μM) was spotted (10 μL) on the bacterial lawn. Spots were air-dried and the plates were incubated overnight at 37°C in an anaerobic cabinet. Ultrapure water was included as negative control. The assay was performed in triplicate. Inhibition was observed by cleared spots.

S. aureus VISA/HIP5827 = assay: MIC, broth microdilution, vancomycin-intermediate S. aureus VISA HIP5827; assay type: cell-based, Staphylococcus aureus; details: for MIC: Staphylococcus aureus VISA/HIP5827, read-out: MIC; for MIC-fold improvement vs. vancomycin: VISA/HIP5827, ratio of MIC of vancomycin and MIC of analogue
In short: as §1

MRSA KS1 = assay: MIC, broth microdilution, MRSA KS1; assay type: cell-based, Staphylococcus aureus; details: for MIC-fold improvement vs. vancomycin: MRSA KS1, ratio of MIC of vancomycin and MIC of analogue; for MIC: Staphylococcus aureus MRSA KS1, read-out: MIC
In short: as §1

E. faecalis VSE 1 = assay: MIC, broth microdilution, vancomycin-sensitive E. faecalis (VSE 1); assay type: cell-based, Enterococcus faecalis; details: for MIC: Enterococcus faecalis VSE 1 (vancomycin-sensitive), read-out: MIC; for MIC-fold improvement vs. vancomycin: VSE 1, ratio of MIC of vancomycin and MIC of analogue
In short: as §1

[7] = system: Clostridium difficile AIU ribotype 027; assay: MIC, plate drop assay, C. difficile AIU ribotype 027; assay type: cell-based; details: for MIC-fold improvement vs. vancomycin: C. difficile AIU ribotype 027; for MIC: C. difficile AIU ribotype 027, plate drop assay
Description: as §3

Compound	MIC-fold improvement vs. vancomycin (MRSA KS89)	MIC (MRSA KS89) [µM]	IC50 [1] [µM]	IC50 [2] [µM]	MIC (E. faecalis VRE 6) [µM]	MIC-fold improvement vs. vancomycin (E. faecalis VRE 6)	MIC-fold improvement vs. vancomycin (MRSA KS6)	MIC (MRSA KS6) [µM]	MIC-fold improvement vs. vancomycin (MRSA KS2)	MIC (MRSA KS2) [µM]	MIC (E. faecalis VRE 37) [µM]	MIC (E. faecalis VRE 53) [µM]	MIC-fold improvement vs. vancomycin (E. faecalis VRE 53)	IC50 [3] [µM]	MIC (E. faecalis VRE 29) [µM]	MIC-fold improvement vs. vancomycin (E. faecalis VRE 29)	MIC (S. aureus VRSA) [µM]	MIC-fold improvement vs. vancomycin (S. aureus VRSA)	MIC [4] [µM]	MIC-fold improvement vs. vancomycin [4]	other results
CN[C@H](CC(C)C)C(=O)N[C@H]1C(=O)N[C@@H](CC(N)=O)C(=O)N[C@H]2C(=O)N[C@H]3C(=O)N[C@H](C(=O)N[C@H](C(=O)NCCNC(=O)/C=C/c4ccc(F)cc4)c4cc(O)cc(O)c4-c4cc3ccc4O)[C@H](O)c3ccc(c(Cl)c3)Oc3cc2cc(c3O[C@@H]2O[C@H](CO)[C@@H](O)[C@H](O)[C@H]2O[C@H]2C[C@](C)(N)[C@H](O)[C@H](C)O2)Oc2ccc(cc2Cl)[C@H]1O [Vanc-22]	2	0.39 (≈ 0.639 µg/mL)	> 250	76 ± 11	1.56 (≈ 2.56 µg/mL)	128	2	0.39 (≈ 0.639 µg/mL)	2	0.39 (≈ 0.639 µg/mL)	12.5 (≈ 20.5 µg/mL)	25 (≈ 41 µg/mL)	16	192	12.5 (≈ 20.5 µg/mL)	32	3.13 (≈ 5.13 µg/mL)	32	0.39 (≈ 0.639 µg/mL)	2	IC50 [5]: > 250 µM; MIC-fold improvement vs. vancomycin [6]: 5.6; MIC [6]: 6.25 µM (≈ 10.2 µg/mL); MIC (S. aureus VISA/HIP5827): 1.56 µM (≈ 2.56 µg/mL); MIC-fold improvement vs. vancomycin (S. aureus VISA/HIP5827): 4; MIC-fold improvement vs. vancomycin (MRSA KS1): 2; MIC (MRSA KS1): 0.39 µM (≈ 0.639 µg/mL); MIC (E. faecalis VSE 1): 0.39 µM (≈ 0.639 µg/mL); MIC-fold improvement vs. vancomycin (E. faecalis VSE 1): 4; MIC-fold improvement vs. vancomycin [7]: 7; MIC [7]: 6.25 µM (≈ 10.2 µg/mL)
CNC(CC(C)C)C(=O)NC1C(=O)NC(CC(N)=O)C(=O)NC2C(=O)NC3C(=O)NC(C(=O)NC(C(=O)NCCCNC(=O)c4cc5ccccc5o4)c4cc(O)cc(O)c4-c4cc3ccc4O)C(O)c3ccc(c(Cl)c3)Oc3cc2cc(c3OC2OC(CO)C(O)C(O)C2OC2CC(C)(N)C(O)C(C)O2)Oc2ccc(cc2Cl)C1O (stereo not shown) [Vanc-25]	2	0.39 (≈ 0.643 µg/mL)	> 250	98 ± 32	0.78 (≈ 1.29 µg/mL)	256	2	0.39 (≈ 0.643 µg/mL)	2	0.39 (≈ 0.643 µg/mL)	12.5 (≈ 20.6 µg/mL)	25 (≈ 41.2 µg/mL)	16	199	6.25 (≈ 10.3 µg/mL)	64	3.13 (≈ 5.16 µg/mL)	32	0.39 (≈ 0.643 µg/mL)	2	IC50 [5]: > 250 µM; MIC-fold improvement vs. vancomycin [6]: 5.6; MIC (S. aureus VISA/HIP5827): 0.39 µM (≈ 0.643 µg/mL); MIC-fold improvement vs. vancomycin (S. aureus VISA/HIP5827): 16; MIC-fold improvement vs. vancomycin (MRSA KS1): 2; MIC (MRSA KS1): 0.39 µM (≈ 0.643 µg/mL); MIC (E. faecalis VSE 1): 0.39 µM (≈ 0.643 µg/mL); MIC-fold improvement vs. vancomycin (E. faecalis VSE 1): 4; MIC-fold improvement vs. vancomycin [7]: 4
CNC(CC(C)C)C(=O)NC1C(=O)NC(CC(N)=O)C(=O)NC2C(=O)NC3C(=O)NC(C(=O)NC(C(=O)NCCCNC(=O)c4ccc5cc(OC)ccc5c4)c4cc(O)cc(O)c4-c4cc3ccc4O)C(O)c3ccc(c(Cl)c3)Oc3cc2cc(c3OC2OC(CO)C(O)C(O)C2OC2CC(C)(N)C(O)C(C)O2)Oc2ccc(cc2Cl)C1O (stereo not shown) [Vanc-29]	2	0.39 (≈ 0.659 µg/mL)	> 250	54 ± 44	1.56 (≈ 2.64 µg/mL)	128	2	0.39 (≈ 0.659 µg/mL)	2	0.39 (≈ 0.659 µg/mL)	12.5 (≈ 21.1 µg/mL)	25 (≈ 42.2 µg/mL)	16	185	6.25 (≈ 10.6 µg/mL)	64	3.13 (≈ 5.29 µg/mL)	32	0.39 (≈ 0.659 µg/mL)	2	IC50 [5]: > 250 µM; MIC-fold improvement vs. vancomycin [6]: 5.6; MIC (S. aureus VISA/HIP5827): 0.39 µM (≈ 0.659 µg/mL); MIC-fold improvement vs. vancomycin (S. aureus VISA/HIP5827): 16; MIC-fold improvement vs. vancomycin (MRSA KS1): 2; MIC (MRSA KS1): 0.39 µM (≈ 0.659 µg/mL); MIC (E. faecalis VSE 1): 0.20 µM (≈ 0.338 µg/mL); MIC-fold improvement vs. vancomycin (E. faecalis VSE 1): 8; MIC-fold improvement vs. vancomycin [7]: 7
CNC(CC(C)C)C(=O)NC1C(=O)NC(CC(N)=O)C(=O)NC2C(=O)NC3C(=O)NC(C(=O)NC(C(=O)NCCCNC(=O)c4ccc(-c5ccc(F)cc5)cc4)c4cc(O)cc(O)c4-c4cc3ccc4O)C(O)c3ccc(c(Cl)c3)Oc3cc2cc(c3OC2OC(CO)C(O)C(O)C2OC2CC(C)(N)C(O)C(C)O2)Oc2ccc(cc2Cl)C1O (stereo not shown) [Vanc-34]	4	0.20 (≈ 0.341 µg/mL)	42 ± 7	110 ± 8	0.39 (≈ 0.664 µg/mL)	513	4	0.20 (≈ 0.341 µg/mL)	8	0.10 (≈ 0.17 µg/mL)	6.25 (≈ 10.6 µg/mL)	12.5 (≈ 21.3 µg/mL)	32	62	3.13 (≈ 5.33 µg/mL)	128	0.78 (≈ 1.33 µg/mL)	128	0.10 (≈ 0.17 µg/mL)	8	MIC-fold improvement vs. vancomycin (E. faecalis VRE 37; VRE 37, ratio of MIC of vancomycin and MIC of analogue): 64; IC50 [5]: 34 ± 2 µM; MIC-fold improvement vs. vancomycin [6]: 22; MIC [6]: 1.56 µM (≈ 2.66 µg/mL); MIC (S. aureus VISA/HIP5827): 0.10 µM (≈ 0.17 µg/mL); MIC-fold improvement vs. vancomycin (S. aureus VISA/HIP5827): 64; MIC-fold improvement vs. vancomycin (MRSA KS1): 4; MIC (MRSA KS1): 0.20 µM (≈ 0.341 µg/mL); MIC (E. faecalis VSE 1): 0.20 µM (≈ 0.341 µg/mL); MIC-fold improvement vs. vancomycin (E. faecalis VSE 1): 8; MIC-fold improvement vs. vancomycin [7]: 29; MIC [7]: 1.56 µM (≈ 2.66 µg/mL)
